Test system: VDCC
Assay: VDCC inhibition: calcium entry (Fluo-4 fluorescence) in SH-SY5Y cells after depolarization with 60 mM KCl
Type: cell-based, human
Conditions: 10 min exposure, 60 mM KCl depolarization
Experimental: This assay is aimed to determine the VDCC blocker activity of compounds; it is performed using SH-SY5Y neuroblastoma cells. SH-SY5Y cells were plated at 5x10^5 cells per well into Black / Clear Bottom 96-well culture plate, 48 hours before treatment. Cells were loaded with Fluo-4, 5 µM and pluronic acid, 0.1%, for 30 min at 37°C, 5%CO2, following a incubation of 15 min at RT in Krebs-HEPES solution. Immediately cells are exposed to the samples at different concentrations for 10 min. The compounds were tested at […], depending on potency. After the treatment, calcium entry is measured as fluorescence in a Fluostar Optima plate reader (BMG) in response to depolarization with 60 mM KCl. The excitation wavelength was 485 nm, and that of emission 520 nm.

Row | Compound | % of calcium entry inhibition (compound at 10^-5 (M)) [%] | % of calcium entry inhibition (compound at 10^-6 (M)) | % of calcium entry inhibition (compound at 10^-7 (M)) [%]
1 | COCOc1cc(OC)ccc1C(=O)NCCCOc1c(Br)cc(CCNC(=O)c2ccc(OC)cc2OCOC)cc1Br [Compound 4] | 87.3 ± 5 | 27.3 ± 5% | 6 ± 0
2 | COCOc1cc(OC)ccc1C(=O)NCCCCCCNC(=O)c1ccc(OC)cc1OCOC [Compound 3] | 37.5 ± 7 | 6,6 ± 2% | 
3 | COc1cc(O)c(C(=O)NCCCCCNC(=O)c2cc(Br)c(OC)cc2O)cc1Br [Compound 5] | 21.8 ± 5 |  | 

Reference: patent EP1798220A1, “Dibenzene derivatives as calcium channel blockers” (Neuropharma S.A., priority 2005, dated 2007)
